# Laboratory results published in article PMC10980815, “Cell surface patching via CXCR4-targeted nanothreads for cancer metastasis inhibition” (Nature Communications, 2024).
# Several values for one entry are separate records, joined by “and”; a condition that tells them apart may be missing. Equal values may be shown once. Ends that are not written are not given here.
# Legend:
# [1] = tested on: 4T1 cells; test: Photosensitizer cell binding (flow cytometry, confocal); assay type: cell-based, murine
# Method: For cell binding investigation, 4T1 cells (4 × 10^5 cells/well) were seeded onto 12-well plates (NEST Biotechnology), and treated with i) P-PS for 1 h, ii) P-BS-PS for 1 h, or iii) P-BS-CM1 for 1 h followed by P-PS-CM2 for another 1 h (50 μg/mL BS equivalence, CM1:CM2 1:1 mol%, 25 μg/mL PS equivalence), respectively. Subsequently, cells were washed three times with PBS and observed using flow cytometry and confocal microscopy.
# [2] = tested on: 4T1 cells; test: Calreticulin exposure in vitro (flow cytometry); assay type: cell-based, murine
# Method: (§1) For the investigation of CXCR4 downstream PI3K signals, cells were fixed, permeabilized, and stained with anti-PI 3 kinase p85 alpha recombinant rabbit monoclonal antibody (1:500 dilution, 4 °C, 1 h) and goat anti-rabbit IgG H&L Alexa Fluor® 647 (1:1000 dilution, 4 °C, 30 min), followed by flow cytometry analysis. For the investigation of ICD hallmarks, cells were stained with anti-calreticulin recombinant rabbit monoclonal antibody (1:500 dilution, 4 °C, 1 h) and goat anti-rabbit IgG H&L Alexa Fluor® 647 (1:1000 dilution, 4 °C, 40 min), followed by flow cytometry analysis. ATP levels in the cell culture supernatant were measured following the protocol of luciferase-based ATP assay kit.
# [3] = Hydrodynamic size / size distribution by dynamic light scattering; assay type: physicochemical; details: Malvern Zetasizer Nano ZS90, mean ± SD
# Method: (§2) The average molecular weight (Mw) and polydispersity (PDI) of the HPMA copolymer conjugates were determined by gel permeation chromatography (GPC) on an AKTA purifier equipment with a Superose 6 10/300 GL analytical column (GE Healthcare, USA) and a differential refraction detector (KNAUER, 2300, Germany). Hydrodynamic sizes and zeta potentials were determined using a Malvern Zetasizer Nano ZS90 equipment (Malvern Instruments Ltd, Malvern, UK). The contents of BS, CM1, and CM2 were determined using a bicinchoninic acid (BCA) protein assay. The PS concentration was determined by ultraviolet-visible (UV-Vis) spectroscopy at its characteristic absorbance peak (660 nm).
# To investigate the coiled-coil assembly, varying CM1-to-CM2 ratios (3:1, 1:1, and 1:3) of P-BS-CM1 and P-CM2 were mixed in 10 mM PBS (pH 7.4) at 25 °C for 10 min. The total polymer concentration was kept constant at 10 mg/mL. Circular dichroism spectra, size distribution, and rheological properties of P-BS-CM1, P-CM2, and their mixture were measured. The surface morphology of P-BS-CM1 and the mixture (P-BS-CM1 + P-CM2) was observed using scanning electron microscopy. Additionally, for the FRET assay, CM1-to-CM2 equimolar of P-BS-CM1-Cy5 and P-CM2-Cy3 were mixed in 10 mM PBS (pH 7.4) at 25 °C for 10 min. Fluorescent spectra of P-BS-CM1-Cy5, P-CM2-Cy3, and the mixture (P-BS-CM1-Cy5+P-CM2-Cy3) were recorded at the Cy3 excitation wavelength of 550 nm.
# [4] = tested on: orthotopic 4T1 breast tumors; test: Intratumoral ICD hallmarks (CRT, ATP, HMGB1); assay type: in vivo, female BALB/c mice; details: individual mice
# Method: (§3) 4T1 cells (1 × 10^6 cells) were injected into the third mammary fat pad of female BALB/c mice (6–8-week). When tumor volumes reached nearly […] on day 7 after tumor inoculation, mice were randomly divided into 8 groups (n = 8 per group). For four groups without laser irradiation (−), mice were intravenously injected with the following samples: (1) saline on day 7, 14, 21, and 28, (2) P-PS on day 7, 14, 21, and 28, (3) P-BS-PS on day 7, 14, 21, and 28, or (4) P-BS-CM1 on day 7, 14, 21, and 28, followed by P-PS-CM2 on day 8, 15, 22, and 29 (5 mg/kg BS equivalence, CM1:CM2 1:1 mol%, 2.5 mg/kg PS equivalence), respectively. For four groups with laser irradiation (+), mice were treated with the same regimens and irradiated at 650 nm laser (580 mW/cm^2, 5 min) on day 9, 16, 23 and 30. Tumor volumes and mice survivals were recorded every other day. For the investigation of immune response and lung metastasis, 4T1 tumor-bearing female BALB/c mice (6–8-week, tumor volume~100 mm^3) were randomly divided into 8 groups (n = 5 per group) and given three rounds of above treatments. On day 28, lungs and tumors were harvested. lungs were fixed with Bouin’s solution. The pulmonary metastatic nodules were counted and analyzed by hematoxylin-eosin staining. Single-cell suspensions of tumor tissues were stained with anti-CD45-PerCP/Cy5.5 (1:300 dilution) and anti-calreticulin recombinant rabbit monoclonal antibody (1:500 dilution) at 4 °C for 1 h, and then stained with goat anti-rabbit IgG H&L Alexa Fluor® 647 (1:1000 dilution, 4 °C, 45 min), followed by flow cytometry analysis. ATP and HMGB1 concentrations in the supernatant of cell suspension were measured using a luciferase-based ATP assay kit and a mouse HMGB1 ELISA kit, respectively. Single-cell suspensions of tumors were stained with FITC anti-mouse CD3 antibody (1:300 dilution), PerCP/Cyanine5.5 anti-mouse CD4 antibody (1:300 dilution), anti-CD8α-APC (1:300 dilution), and anti-Foxp3-PE (1:300 dilution) for flow cytometry analysis of T cell subtypes (CD8^+ T cells, CD4^+ effector T cells, and Foxp3^+ regulatory T cells), and stained with PE anti-mouse/human CD11b antibody (1:300 dilution) and FITC anti-mouse Ly-6G/Ly-6C (Gr-1) antibody (1:300 dilution) for flow cytometry analysis of MDSCs (CD11b^+Gr1^+). Cytotoxic T cells in tumor tissues were investigated with immunofluorescent staining of IFN-γ and flow cytometry analysis using anti-IFN-γ-PE (1:300 dilution). For CD8-depletion assay, 4T1 tumor-bearing female BALB/c mice (6–8-week, tumor volume~100 mm^3) were randomly divided into 3 groups (n = 8 per group). Mice were intravenously given four doses of P-BS-CM1 on day 7, 14, 21 and 28, combined with P-PS-CM2 on day 8, 15, 22 and 29 (5 mg/kg BS equivalence, CM1:CM2 1:1 mol%, 2.5 mg/kg PS equivalence) in the presence or absence of InvivoMab anti-mouse CD8α (100 μg/mice). Mice were irradiated at 650 nm laser (580 mW/cm^2, 5 min) on day 9, 16, 23 and 30. Tumor volumes and mice survivals were recorded every other day.
# [5] = tested on: 4T1 cells; test: Extracellular ATP release in vitro; assay type: cell-based, murine
# Method: as §1
# [6] = tested on: orthotopic 4T1 breast tumors; test: IFN-γ+CD8+ T lymphocytes in primary tumors; assay type: in vivo, female BALB/c mice; details: groups marked (+) (laser irradiation); individual mice, n = 5
# Method: 4T1 cells (1 × 10^6 cells) were injected into the third mammary fat pad of female BALB/c mice (6–8-week). When tumor volumes reached nearly […] on day 7 after tumor inoculation, mice were randomly divided into 8 groups (n = 8 per group). For four groups without laser irradiation (−), mice were intravenously injected with the following samples: (1) saline on day 7, 14, 21, and 28, (2) P-PS on day 7, 14, 21, and 28, (3) P-BS-PS on day 7, 14, 21, and 28, or (4) P-BS-CM1 on day 7, 14, 21, and 28, followed by P-PS-CM2 on day 8, 15, 22, and 29 (5 mg/kg BS equivalence, CM1:CM2 1:1 mol%, 2.5 mg/kg PS equivalence), respectively. For four groups with laser irradiation (+), mice were treated with the same regimens and irradiated at 650 nm laser (580 mW/cm^2, 5 min) on day 9, 16, 23 and 30. Tumor volumes and mice survivals were recorded every other day. For the investigation of immune response and lung metastasis, 4T1 tumor-bearing female BALB/c mice (6–8-week, tumor volume~100 mm^3) were randomly divided into 8 groups (n = 5 per group) and given three rounds of above treatments. […] The pulmonary metastatic nodules were counted and analyzed by hematoxylin-eosin staining. […] ATP and HMGB1 concentrations in the supernatant of cell suspension were measured using a luciferase-based ATP assay kit and a mouse HMGB1 ELISA kit, respectively. […] Tumor volumes and mice survivals were recorded every other day.
# [7] = tested on: orthotopic 4T1 breast tumors; test: PDT efficacy in vivo: primary tumor growth, survival, lung metastasis; parameters: species or system female BALB/c mice
# Method: as §3
# [8] = ζ-potential (Zetasizer); assay type: physicochemical; details: Malvern Zetasizer Nano ZS90; mean ± SD
# Method: as §2
# [9] = groups marked (+) (laser irradiation), n = 5
# [10] = groups marked (-) (no laser irradiation), n = 5
substance,measurement,setting,value
"P-BS-PS: BS-multivalently-modified polymer-PS conjugate (LGASWHRPDKCCLGYQKRPLPA; not fully specified (residues 11, 12); cysteine pairing not given here; also: chlorin e6 photosensitizer on polymer)","Photosensitizer cell binding (fluorescence, Fig. 7a)",[1]; replicate 1,507603
same,"Photosensitizer cell binding (fluorescence, Fig. 7a)",[1]; replicate 2,505554
same,"Photosensitizer cell binding (fluorescence, Fig. 7a)",[1]; replicate 3,480665
same,CRT positive cells (%),[2]; replicate 1,20.53%
same,CRT positive cells (%),[2]; replicate 2,18.21%
same,CRT positive cells (%),[2]; replicate 3,17.1%
same,Size,[3],22.4±1.4 nm
same,ATP per tumor weight,[4]; [9],345.1 µmol/g and 303.2 µmol/g and 231.5 µmol/g and 287.7 µmol/g and 298.1 µmol/g
same,CRT expression in tumor (MFI),[4]; [9],34335.1 MFI and 38552.2 MFI and 29253.6 MFI and 35944.5 MFI and 36607.6 MFI
same,HMGB1 per tumor weight,[4]; [9],80.13 ng/g and 70.54 ng/g and 88.61 ng/g and 92.56 ng/g and 89.1 ng/g
same,ATP per tumor weight,[4]; [10],191.5 µmol/g and 151.37 µmol/g and 120.13 µmol/g and 106.4 µmol/g and 205.73 µmol/g
same,HMGB1 per tumor weight,[4]; [10],19.76 ng/g and 15.34 ng/g and 14.57 ng/g and 18.95 ng/g and 19.22 ng/g
same,CRT expression in tumor (MFI),"[4]; groups marked (-) (no laser irradiation), n = 5, one line each",27343 MFI and 22321 MFI and 19321 MFI and 23431 MFI and 20197 MFI
same,Extracellular ATP,[5]; replicate 1,52.31 nM
same,Extracellular ATP,[5]; replicate 2,40.65 nM
same,Extracellular ATP,[5]; replicate 3,40.42 nM
same,IFN-γ+ cells (%) in tumor-infiltrating CD8+ cells,[6],13.27% and 14.75% and 15.74% and 11.82% and 15.65%
same,Number of lung metastatic nodules,"[7]; (+) with laser, mouse 1 of 5",11
same,Number of lung metastatic nodules,"[7]; (+) with laser, mouse 2 of 5",13
same,Number of lung metastatic nodules,"[7]; (+) with laser, mouse 3 of 5",6
same,Number of lung metastatic nodules,"[7]; (+) with laser, mouse 4 of 5",9
same,Number of lung metastatic nodules,"[7]; (+) with laser, mouse 5 of 5",7
same,Number of lung metastatic nodules,"[7]; (-) no laser, mouse 1 of 5",24
same,Number of lung metastatic nodules,"[7]; (-) no laser, mouse 2 of 5",27
same,Number of lung metastatic nodules,"[7]; (-) no laser, mouse 3 of 5",22
same,Number of lung metastatic nodules,"[7]; (-) no laser, mouse 4 of 5",23
same,Number of lung metastatic nodules,"[7]; (-) no laser, mouse 5 of 5",21
same,ζ-potential,[8],-18.24±2.31 mV
